{
  "source": "paper PMC8222713",
  "about": "“Variation of Two S3b Residues in KV4.1–4.3 Channels Underlies Their Different Modulations by Spider Toxin κ-LhTx-1” (Frontiers in Pharmacology, 2021)",
  "key": {"KV4.3 channel (rKV4.3)": {"molecular_target": "T1, KV4.3 channel (rKV4.3) (Rattus norvegicus, UniProt Q62897)", "T1 construct": "expressed in transfected cells; host or cells: CHO-K1 (transient, co-transfected with pEGFP-N1)", "T1 sequence (Q62897 1-655)": "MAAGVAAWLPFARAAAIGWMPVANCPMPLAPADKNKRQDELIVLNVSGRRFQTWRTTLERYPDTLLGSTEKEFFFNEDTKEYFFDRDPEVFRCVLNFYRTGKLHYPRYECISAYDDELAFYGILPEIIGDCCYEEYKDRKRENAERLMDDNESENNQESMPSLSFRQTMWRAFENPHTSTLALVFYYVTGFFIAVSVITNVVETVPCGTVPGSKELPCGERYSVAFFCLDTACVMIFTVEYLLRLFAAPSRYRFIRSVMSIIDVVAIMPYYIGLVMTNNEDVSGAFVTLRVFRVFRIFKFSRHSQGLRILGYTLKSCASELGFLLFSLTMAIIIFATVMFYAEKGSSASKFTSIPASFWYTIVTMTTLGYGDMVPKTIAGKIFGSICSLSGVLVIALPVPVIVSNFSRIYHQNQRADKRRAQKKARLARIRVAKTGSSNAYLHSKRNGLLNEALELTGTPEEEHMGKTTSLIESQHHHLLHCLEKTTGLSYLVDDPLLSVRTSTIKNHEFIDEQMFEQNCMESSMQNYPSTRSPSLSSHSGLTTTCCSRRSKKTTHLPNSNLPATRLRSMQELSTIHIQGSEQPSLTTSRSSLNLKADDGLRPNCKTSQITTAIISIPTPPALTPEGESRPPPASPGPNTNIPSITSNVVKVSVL", "assay": "Whole-cell patch clamp, KV4.3 in CHO-K1 cells", "assay_type": "cell-based", "experimental": "(§1) The cDNA of hKV1.1, hKV1.3, rKV1.4, hKV1.5, rKV2.1, hKV3.1–3.4, mKV4.1, rKV4.2, and rKV4.3 were subcloned in the eukaryotic expression vector pCDNA3.1 or pCMV-blank. Channel mutants were made by a site-directed mutation method. Briefly, a pair of oppositely directed primers with 15 bp overlap at their 5′ ends and the designed mutation site were used to amplify the parental channel plasmid, then the PCR mix was treated with DpnI to remove the template. 10 μL digestion mix was directly used to transform 100 μL DH5α chemical competent cells. The correct mutation made by this procedure was finally confirmed by DNA sequencing. CHO-K1 cells (ATCC® CCL-61™) were grown in DMEM-F12 mixed medium (1:1) supplemented with 10% FBS and maintained in standard conditions (saturated humidity, 37°C, 5% CO2). Channel plasmid was co-transfected with pEGFP-N1 (encodes the green fluoresence protein) into CHO-K1 cells using lipofectamine 2000 following the manufacturer’s instructions. 4–6 h after transfection, cells were seeded onto poly-lysine (PLL) coated coverslips, and 24–36 h later, transfected cells were ready for patch-clamp analysis. It should be note that KV4.2 and its mutants were also co-expressed with hKChIP1 to promote their functional expressions.\n(§2) Whole-cell patch clamp recording was performed in an electrophysiology platform equipped with MultiClamp 700B amplifier and Axon Digidata 1550 AD/DA convertor (Axon Instruments, Irvine, CA, United States). Data were acquired using the pClamp software (Axon Instruments, Irvine, CA, United States). All experiments were performed at room temperature. The bath solution contains (in mM): 140 NaCl, 5 KCl, 1 MgCl2, 2 CaCl2, 10 glucose, and 10 HEPES (pH = 7.3). The pipette solution contains (in mM): 140 KCl, 2.5 MgCl2, 11 EGTA, and 10 HEPES (pH = 7.3). Series resistance was kept below 10 MΩ and compensated to 80%. The concentration–response curves were fitted by a Hill logistic equation to estimate the potency (IC50) of the toxin. The whole cell conductance (G) at each depolarizing voltage (V) was determined using the equation: G = I/(V−Vrev), where I and Vrev represents the current amplitude and the reversal potential, respectively. In the present study, Vrev for K^+ current is determined to be −85.61 mV using the Nernst equation. G-V curve was obtained by plotting the normalized G as a function of V and fitted by the Boltzmann equation: y = 1/{1 + exp [(Va−V)/K]}, in which Va, V, and K represents half-maximum activation voltage, test voltage and slope factor, respectively. The steady-state fast inactivation of KV4 channels was measured using a classical two-pulses protocol: cell was held at −120 mV, and a train of conditional voltages (−120–40 mV, in 10 mV increment, 1,000 ms) were applied to induce channel inactivation, followed by a +60 mV test pulse (300 ms) to assess the proportion of non-inactivated channels; the sweep interval was set to 10 s. Currents at the test pulse (I) were normalized to the maximum value (Imax) and plotted as a function of the conditional voltage (V), the curve was fitted by the Boltzmann equation: I/Imax = A + (1−A)/{1 + exp [(V−Vh)/K]}, where Vh is the half-maximum inactivation voltage, A represents the minimum channel availability, and K is the slope factor. Gating currents of KV4.1–4.3 channels were measured as previously reported ([Tilley et al., 2019]). Briefly, the ionic pore currents were abolished by replacing K^+ with NMDG^+ in the pipette solution, and 10 µM Cs^+ was present in the bath solution to occupy the selectivity filter of KV channels to prevent decay of the gating currents during recording.\n(§3) Data were presented as MEAN ± SEM, n represents the number of separate experimental cells. Data were analyzed using the software Clampfit 10.5 (Axon Instruments, Irvine, CA, United States), Graphpad Prism 5.01 (GraphPad Software, La Jolla, CA, United States) and Excel 2010 (Microsoft Corporation, Redmond, WA, United States). […]"}, "KV3.4 channel (hKV3.4)": {"system": "KV3.4 channel (hKV3.4)", "assay": "Whole-cell patch clamp selectivity, KV3.4", "assay_type": "cell-based, human", "details": "KV3.4, 10 µM, n = 5", "experimental": "(§4) The cDNA of hKV1.1, hKV1.3, rKV1.4, hKV1.5, rKV2.1, hKV3.1–3.4, mKV4.1, rKV4.2, and rKV4.3 were subcloned in the eukaryotic expression vector pCDNA3.1 or pCMV-blank. Channel mutants were made by a site-directed mutation method. Briefly, a pair of oppositely directed primers with 15 bp overlap at their 5′ ends and the designed mutation site were used to amplify the parental channel plasmid, then the PCR mix was treated with DpnI to remove the template. 10 μL digestion mix was directly used to transform 100 μL DH5α chemical competent cells. The correct mutation made by this procedure was finally confirmed by DNA sequencing. […] 4–6 h after transfection, cells were seeded onto poly-lysine (PLL) coated coverslips, and 24–36 h later, transfected cells were ready for patch-clamp analysis. […]\n(§5) Whole-cell patch clamp recording was performed in an electrophysiology platform equipped with MultiClamp 700B amplifier and Axon Digidata 1550 AD/DA convertor (Axon Instruments, Irvine, CA, United States). […] The whole cell conductance (G) at each depolarizing voltage (V) was determined using the equation: G = I/(V−Vrev), where I and Vrev represents the current amplitude and the reversal potential, respectively. In the present study, Vrev for K^+ current is determined to be −85.61 mV using the Nernst equation. […] Gating currents of KV4.1–4.3 channels were measured as previously reported ([Tilley et al., 2019]). […]"}, "KV3.1 channel (hKV3.1)": {"system": "KV3.1 channel (hKV3.1)", "assay": "Whole-cell patch clamp selectivity, KV3.1", "assay_type": "cell-based, human", "details": "KV3.1, 10 µM, n = 5", "experimental": "as §4, §5"}, "[1]": {"system": "KV4.3 channel gating currents", "assay": "Gating current recording, KV4.3", "assay_type": "cell-based, rat", "experimental": "as §4, §5"}, "KV4.3/T277P mutant": {"system": "KV4.3/T277P mutant", "assay": "Whole-cell patch clamp, KV4.3/T277P in CHO-K1 cells", "assay_type": "cell-based, rat", "experimental": "as §1, §2, §3"}, "[2]": {"details": "10 μM κ-LhTx-1, KV4.3, G-V, mean ± SEM, n = 10"}, "[3]": {"details": "10 μM κ-LhTx-1, KV4.3, two-pulse protocol, mean ± SEM, n = 7"}, "[4]": {"details": "10 μM κ-LhTx-1, G-V, mean ± SEM, n = 6"}, "[5]": {"details": "10 μM κ-LhTx-1, two-pulse protocol, mean ± SEM, n = 6"}},
  "note": "Where a SMILES comes first, the peptide text is derived from it. Bridges are numbered along the chain shown (N, C = ends).",
  "data": [
    {"smiles": "CC[C@H](C)[C@@H]1NC(=O)[C@H](CCC(N)=O)NC(=O)[C@@H]2CSSC[C@@H]3NC(=O)[C@H](CC(C)C)NC(=O)[C@H](CC(N)=O)NC(=O)[C@H](CCSC)NC(=O)[C@H](Cc4c[nH]c5ccccc45)NC(=O)[C@H](CO)NC(=O)[C@H](C)NC(=O)[C@@H](NC(=O)[C@H](CCC(=O)O)NC(=O)[C@H](CCC(N)=O)NC(=O)[C@H](C)NC(=O)[C@H](CC(=O)O)NC(=O)[C@@H](N)CCC(=O)O)CSSC[C@H](NC(=O)[C@H](CSSC[C@@H](C(=O)N[C@@H](CCCCN)C(=O)N[C@@H](Cc4ccc(O)cc4)C(=O)N[C@@H](CCCCN)C(=O)N[C@@H](CC(C)C)C(N)=O)NC(=O)[C@H](Cc4c[nH]c5ccccc45)NC1=O)NC(=O)[C@H](CCCCN)NC(=O)[C@H](CCCCN)NC(=O)[C@H](CCC(=O)O)NC(=O)CNC3=O)C(=O)N[C@@H](CCC(=O)O)C(=O)NCC(=O)N[C@@H](Cc1ccc(O)cc1)C(=O)N[C@@H](C(C)C)C(=O)N2", "note": "[κ-LhTx-1] (H-EDAQECASWMNLCGEKKCCEGYVCQIWCKYKL-NH2; disulfide 6-19, 13-24, 18-28 (inferred); N-terminus and C-terminus assumed)", "values": [
      {"measurement": "Va (steady-state activation)", "setting": "KV4.3 channel (rKV4.3); [2]", "value": "46.86 ± 1.52", "unit": "mV"},
      {"measurement": "k, slope factor (steady-state activation)", "setting": "KV4.3 channel (rKV4.3); [2]", "value": "20.45 ± 0.30", "unit": "mV"},
      {"measurement": "Vh (steady-state inactivation)", "setting": "KV4.3 channel (rKV4.3); [3]", "value": "-30.87 ± 2.23", "unit": "mV"},
      {"measurement": "k, slope factor (steady-state inactivation)", "setting": "KV4.3 channel (rKV4.3); [3]", "value": "6.21 ± 0.43", "unit": "mV"},
      {"measurement": "reversibility of inhibition", "setting": "KV4.3 channel (rKV4.3); KV4.3", "value": "in a reversible manner"},
      {"measurement": "voltage-dependence of inhibition", "setting": "KV4.3 channel (rKV4.3); KV4.3, 10 µM, inhibition ratio at each depolarizing voltage, n = 5–8", "value": "decreased quickly with the increment of the depolarizing voltage"},
      {"measurement": "I-V relationship shift", "setting": "KV4.3 channel (rKV4.3); KV4.3, 10 µM, n = 5–8", "value": "only a small shift"},
      {"measurement": "current inhibition at Va", "setting": "KV4.3 channel (rKV4.3); KV4.3 at Va depolarizing voltage", "value": "almost fully inhibited"},
      {"measurement": "∆Va (steady-state activation)", "setting": "KV4.3 channel (rKV4.3); Va shift by 10 μM κ-LhTx-1 vs control, KV4.3, mean ± SEM", "value": "39.88 ± 2.19", "unit": "mV"},
      {"measurement": "∆Vh (steady-state inactivation)", "setting": "KV4.3 channel (rKV4.3); Vh shift by 10 μM κ-LhTx-1 vs control, KV4.3, mean ± SEM", "value": "14.83 ± 3.34", "unit": "mV"},
      {"measurement": "effect on currents", "setting": "KV3.4 channel (hKV3.4)", "value": "did not remarkably affect the currents"},
      {"measurement": "effect on currents", "setting": "KV3.1 channel (hKV3.1)", "value": "did not remarkably affect the currents"},
      {"measurement": "inhibition of gating charge (Q) movement, 500 nM vs 10 µM", "setting": "[1]; KV4.3, holding −100 mV, 20 ms to +30 mV, n = 5–6", "value": "inhibited essentially the same proportion of gating charge movement"},
      {"measurement": "gating current inhibition", "setting": "[1]; KV4.3, n = 5–6", "value": "inhibited the gating currents"},
      {"measurement": "Va (steady-state activation)", "setting": "KV4.3/T277P mutant; [4]", "value": "49.17 ± 0.88", "unit": "mV"},
      {"measurement": "k, slope factor (steady-state activation)", "setting": "KV4.3/T277P mutant; [4]", "value": "22.21 ± 1.64", "unit": "mV"},
      {"measurement": "Vh (steady-state inactivation)", "setting": "KV4.3/T277P mutant; [5]", "value": "-35.46 ± 1.68", "unit": "mV"},
      {"measurement": "k, slope factor (steady-state inactivation)", "setting": "KV4.3/T277P mutant; [5]", "value": "8.50 ± 0.42", "unit": "mV"},
      {"measurement": "inhi%(min) vs wild-type KV4.3", "setting": "KV4.3/T277P mutant; 10 μM, +100 mV", "value": "significantly elevated inhi%(min) value"},
      {"measurement": "∆Va (steady-state activation)", "setting": "KV4.3/T277P mutant; Va shift by 10 μM κ-LhTx-1 vs control, mean ± SEM", "value": "40.47 ± 2.79", "unit": "mV"},
      {"measurement": "∆Vh (steady-state inactivation)", "setting": "KV4.3/T277P mutant; Vh shift by 10 μM κ-LhTx-1 vs control, mean ± SEM", "value": "11.63 ± 2.17", "unit": "mV"}
    ]}
  ]
}
